What was measured:
[1] = test system: H1975; experiment: CCK-8 proliferation, NCI-H1975 (H1975); type: cell-based, Human; settings: Homo sapiens, NCI-H1975; CCK-8; 96 hours; read-out: Inhibitory activity (IC50) on tumor cell proliferation, H1975
How it was run: (§1)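 Cells seeded, then after 24 h treated with 10 concentrations (top 10 µM, 5-fold serial dilution) for a line-specific time at 37°C, 5% CO2. Viability read by CCK-8; IC50 fitted from growth-inhibition curves.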

[2] = test system: PC-9; experiment: CCK-8 proliferation, PC-9; type: cell-based, Human; settings: Homo sapiens, PC-9; CCK-8; 96 hours; read-out: Inhibitory activity (IC50) on tumor cell proliferation, PC-9
Description: (§2) The tumor cells used herein were cultured in a cell culture medium listed in table A1 at 37°C in an incubator with 5% CO2. Prior to experimentation, all cell lines used were correctly identified by STR profiling, and tested negative for mycoplasma contamination using a mycoplasma detection kit through routine screenings. Table A1. Tumor cells and cell culture medium used in the present disclosure
(§3) IC50 values of the compounds of the present disclosure (including the compounds in Table 1, and compounds of examples) were measured using the Meilun Cell Counting Kit-8 kit from Dalian Meilun Biotech Co., Ltd. Assay details are as follows: tumor cells were seeded in a 96-well plate at a density listed in Table A2. After 24h, 100 µL of the inoculated cells were treated with 0.5µL of the compounds of the present disclosure (including the compounds in Tables 1 and 2, and compounds of examples) at 10 different successively decreasing concentrations (starting at the highest concentration of 10µM; 5-fold serial dilutions). After the cells were treated with the compounds of the present disclosure for a period of time, the cell viability detection reagent was added to the culture medium for cell viability assessment according to the instructions provided with the CCK-8 kit. […] The growth inhibition of the compounds of the present disclosure on cells was plotted by Prism Graphpad software, and the IC50 values of the compounds of the present disclosure were calculated therefrom. […] Seeding protocol and treatment time for tumor cells

[3] = test system: HCC827; experiment: CCK-8 proliferation, HCC827; type: cell-based, Human; settings: Homo sapiens, HCC827; CCK-8; 96 hours; read-out: Inhibitory activity (IC50) on tumor cell proliferation, HCC827
Description: as §2, §3

[4] = test system: EGFR; experiment: Western blot degradation of EGFR (H1975 Cell); type: cell-based, Human; settings: Table D2
How it was run: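 Quantification by ImageJ densitometry of Western blot bands: DC50 is the fitted concentration halving band intensity relative to DMSO. Percent remaining uses internal-control normalization, and degradation rate is its complement.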

[5] = test system: MGC-803; experiment: CCK-8 proliferation, MGC-803 (heads: MGC80-3, MGC803); type: cell-based, Human; settings: Homo sapiens, MGC-803; Table B10, compounds designed based on the IRAK4 inhibitors; MGC803 cells; read-out: Inhibitory activity (IC50, nM) on tumor cell proliferation, MGC803
Description: as §2, §3

[6] = test system: MM.1S; experiment: CCK-8 proliferation, MM.1S; type: cell-based; settings: Homo sapiens, MM1.S; Table B10, compounds designed based on the IRAK4 inhibitors; MM.1S cells; read-out: Inhibitory activity (IC50, nM) on tumor cell proliferation, MM.1S
How it was run: as §1

Row | SMILES | IC50 [1] | IC50 [2] | IC50 [3] | IC50 [5] | IC50 [6] | Degradation of substrate protein EGFR (substrate protein remaining %) [4]
1 | O=C1CCC(c2ccc(CN3CCN(c4ccc(Nc5ncc6nc(Nc7ccccc7)n(C7CCCC7)c6n5)cc4)CC3)cc2F)C(=O)N1 (stereo not drawn) [GT-03741, 3-(4-((4-(4-((9-cyclopentyl-8-(phenylamino)-9H-purin-2-yl)amino)phenyl)piperazin-1-yl)methyl)-2-fluorophenyl)piperidine-2,6-dione] |  | 10 to 50 nM | 10 to 50 nM |  |  | 
2 | O=C1CCN(c2ccc(CN3CCN(c4ccc(Nc5ncc6nc(Nc7ccccc7)n(C7CCCC7)c6n5)cc4)CC3)nc2)C(=O)N1 [GT-05839, 1-(6-((4-(4-((9-cyclopentyl-8-(phenylamino)-9H-purin-2-yl)amino)phenyl)piperazin-1-yl)methyl)pyridin-3-yl)dihydropyrimidine-2,4(1H,3H)-dione] | 100 to 500 nM | 1 to 10 nM | 10 to 50 nM |  |  | A (A is defined as 0% ≤ substrate protein remaining % ≤ 80%)
3 | O=C1CCN(c2cccc(CN3CCN(c4ccc(Nc5ncc6nc(Nc7ccccc7)n(C7CCCC7)c6n5)cc4)CC3)c2)C(=O)N1 [GT-05838, 1-(3-((4-(4-((9-cyclopentyl-8-(phenylamino)-9H-purin-2-yl)amino)phenyl)piperazin-1-yl)methyl)phenyl)dihydropyrimidine-2,4(1H,3H)-dione] | 100 to 500 nM | 1 to 10 nM | 1 to 10 nM |  |  | A (A is defined as 0% ≤ substrate protein remaining % ≤ 80%)
4 | CN(Cc1ccc(C2CCC(=O)NC2=O)cc1)C1CCN(c2ccc(Nc3ncc4nc(Nc5ccccc5)n(C5CCCC5)c4n3)cc2)CC1 (stereo not drawn) [GT-03863, 3-(4-(((1-(4-((9-cyclopentyl-8-(phenylamino)-9H-purin-2-yl)amino)phenyl)piperidin-4-yl)(methyl)amino)methyl)phenyl)piperidine-2,6-dione] | 100 to 500 nM | 1 to 10 nM | 1 to 10 nM |  |  | A (A is defined as 0% ≤ substrate protein remaining % ≤ 80%)
5 | O=C1CCN(c2ccc(CN3CCN(c4ccc(Nc5ncc6nc(Nc7ccccc7)n(C7CCCC7)c6n5)cc4)CC3)cc2)C(=O)N1 [GT-05837, 1-(4-((4-(4-((9-cyclopentyl-8-(phenylamino)-9H-purin-2-yl)amino)phenyl)piperazin-1-yl)methyl)phenyl)dihydropyrimidine-2,4(1H,3H)-dione] | 100 to 500 nM | 1 to 10 nM | 1 to 10 nM |  |  | 
6 | CN(Cc1ccc(C2CCC(=O)NC2=O)c(F)c1)C1CCN(c2ccc(Nc3ncc4nc(Nc5ccccc5)n(C5CCCC5)c4n3)cc2)CC1 (stereo not drawn) [GT-03864, 3-(4-(((1-(4-((9-cyclopentyl-8-(phenylamino)-9H-purin-2-yl)amino)phenyl)piperidin-4-yl)(methyl)amino)methyl)-2-fluorophenyl)piperidine-2,6-dione] | 100 to 500 nM | 1 to 10 nM | 1 to 10 nM |  |  | A (A is defined as 0% ≤ substrate protein remaining % ≤ 80%)
7 | O=C1CCC(c2ccc(CN3CCN(c4ccc(Nc5ncc6nc(Nc7ccccc7)n(C7CCCC7)c6n5)cc4)CC3)cc2)C(=O)N1 (stereo not drawn) [GT-03740, 3-(4-((4-(4-((9-cyclopentyl-8-(phenylamino)-9H-purin-2-yl)amino)phenyl)piperazin-1-yl)methyl)phenyl)piperidine-2,6-dione] |  | 10 to 50 nM | 10 to 50 nM |  |  | A (A is defined as 0% ≤ substrate protein remaining % ≤ 80%)

Further lines, with some results ahead:

Row | IC50 [1] | IC50 [2] | IC50 [3] | IC50 [5] | IC50 [6] | SMILES | Degradation of substrate protein EGFR (substrate protein remaining %) [4]
8 | 100 to 500 nM | 1 to 10 nM | 10 to 50 nM |  |  | O=C1CCN(c2ccc(CN3CCN(c4ccc(Nc5ncc6nc(Nc7ccccc7)n(C7CCCC7)c6n5)cc4)CC3)cn2)C(=O)N1 [GT-05840, 1-(5-((4-(4-((9-cyclopentyl-8-(phenylamino)-9H-purin-2-yl)amino)phenyl)piperazin-1-yl)methyl)pyridin-2-yl)dihydropyrimidine-2,4(1H,3H)-dione] | A (A is defined as 0% ≤ substrate protein remaining % ≤ 80%)
9 | 100 to 500 nM | 1 to 10 nM | 10 to 50 nM |  |  | CN(Cc1cccc(N2CCC(=O)NC2=O)c1)C1CCN(c2ccc(Nc3ncc4nc(Nc5ccccc5)n(C5CCCC5)c4n3)cc2)CC1 [GT-05870, 1-(3-(((1-(4-((9-cyclopentyl-8-(phenylamino)-9H-purin-2-yl)amino)phenyl)piperidin-4-yl)(methyl)amino)methyl)phenyl)dihydropyrimidine-2,4(1H,3H)-dione] | A (A is defined as 0% ≤ substrate protein remaining % ≤ 80%)
10 | 100 to 500 nM | 1 to 10 nM | 10 to 50 nM |  |  | O=C1CCN(c2ccc(CN3CCN(C4CCN(c5ccc(Nc6ncc7nc(Nc8ccccc8)n(C8CCCC8)c7n6)cc5)CC4)CC3)nc2)C(=O)N1 [GT-05941, 1-(6-((4-(1-(4-((9-cyclopentyl-8-(phenylamino)-9H-purin-2-yl)amino)phenyl)piperidin-4-yl)piperazin-1-yl)methyl)pyridin-3-yl)dihydropyrimidine-2,4(1H,3H)-dione] | A (A is defined as 0% ≤ substrate protein remaining % ≤ 80%)
11 | 100 to 500 nM | 1 to 10 nM | 1 to 10 nM |  |  | O=C1CCN(c2cccc(CN3CCN(C4CCN(c5ccc(Nc6ncc7nc(Nc8ccccc8)n(C8CCCC8)c7n6)cc5)CC4)CC3)c2)C(=O)N1 [GT-05940, 1-(3-((4-(1-(4-((9-cyclopentyl-8-(phenylamino)-9H-purin-2-yl)amino)phenyl)piperidin-4-yl)piperazin-1-yl)methyl)phenyl)dihydropyrimidine-2,4(1H,3H)-dione] | A (A is defined as 0% ≤ substrate protein remaining % ≤ 80%)
12 |  |  |  | > 10000 nM | > 10000 nM | Cc1cc(-c2nc(C(=O)Nc3cc4oc(N5CCOCC5)nc4nc3N3CC[C@@H](O)C3)co2)ccn1 [emavusertib, reference compound] | 
13 |  | 10 to 50 nM | 10 to 50 nM |  |  | O=C1CCC(Nc2cccc(CN3CCN(C4CCN(c5ccc(Nc6ncc7nc(Nc8ccccc8)n(C8CCCC8)c7n6)cc5)CC4)CC3)c2)C(=O)N1 (stereo not drawn) [GT-05943, 3-((3-((4-(1-(4-((9-cyclopentyl-8-(phenylamino)-9H-purin-2-yl)amino)phenyl)piperidin-4-yl)piperazin-1-yl)methyl)phenyl)amino)piperidine-2,6-dione] | A (A is defined as 0% ≤ substrate protein remaining % ≤ 80%)
14 | 100 to 500 nM | 1 to 10 nM | 10 to 50 nM |  |  | CN(Cc1ccc(N2CCC(=O)NC2=O)nc1)C1CCN(c2ccc(Nc3ncc4nc(Nc5ccccc5)n(C5CCCC5)c4n3)cc2)CC1 [GT-05871, 1-(5-(((1-(4-((9-cyclopentyl-8-(phenylamino)-9H-purin-2-yl)amino)phenyl)piperidin-4-yl)(methyl)amino)methyl)pyridin-2-yl)dihydropyrimidine-2,4(1H,3H)-dione] | 
15 |  | 10 to 50 nM | 10 to 50 nM |  |  | O=C1CCC(Nc2cccc(CN3CCN(c4ccc(Nc5ncc6nc(Nc7ccccc7)n(C7CCCC7)c6n5)cc4)CC3)c2)C(=O)N1 (stereo not drawn) [GT-05841, 3-((3-((4-(4-((9-cyclopentyl-8-(phenylamino)-9H-purin-2-yl)amino)phenyl)piperazin-1-yl)methyl)phenyl)amino)piperidine-2,6-dione] | A (A is defined as 0% ≤ substrate protein remaining % ≤ 80%)

Source: patent EP4678638A1, “NEW E3 UBIQUITIN LIGASE LIGAND, PROTEIN DEGRADATION AGENT AND USE THEREOF” (priority 2023, dated 2024)
